Experimental data taken from publication PMC5855801, “Benzothiophenone Derivatives Targeting Mutant Forms of Estrogen Receptor-α in Hormone-Resistant Breast Cancers” (International Journal of Molecular Sciences, 2018).

Columns and labels:
ERα-LBD and SRC-3 = target: T1, ERα-LBD and SRC-3 (Homo sapiens, UniProt P03372); test: Mammalian two-hybrid assay in MDA-MB-231 cells; type: cell-based; details: 1 nM E2, 24 h, read-out: IC50 for interaction between ERα-LBD and SRC-3 fusion proteins
T1 construct: generated by cloning the LBD of ERα into the pACT vector; expressed in transfected cells; host or cells: MDA-MB-231
T1 sequence (P03372 311-547 limits assumed): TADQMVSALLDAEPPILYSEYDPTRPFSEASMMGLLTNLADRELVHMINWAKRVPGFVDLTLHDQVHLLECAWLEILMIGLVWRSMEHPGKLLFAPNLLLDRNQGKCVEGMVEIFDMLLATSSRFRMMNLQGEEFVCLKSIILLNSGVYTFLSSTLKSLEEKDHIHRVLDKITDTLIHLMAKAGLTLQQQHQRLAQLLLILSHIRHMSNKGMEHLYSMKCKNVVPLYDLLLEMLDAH
Procedure: The direct effect of VPC-16606 on ERα-co-activator recruitment was assessed by the mammalian two-hybrid system (Promega, Madison, WI, USA). MDA-MB-231 cells were transfected with pACT-ERα-LBD, pBIND-Steroid receptor coactivator protein-3 (pBIND-SRC-3), a luciferase reporter plasmid containing a GAL4 recognition sequence and a constitutively-active Renilla reporter plasmid. The cells were treated with a […] dilution of VPC-16606 starting at 50 µM.
For the mammalian two hybrid assay, the CheckMate^TM Mammalian Two-Hybrid System (Promega, Madison, WI, USA) was used. The pACT-ERα-LBD construct was generated by cloning the LBD of ERα into the pACT vector to produce the ERα-LBD protein fused to the VP16 activation domain. The SRC-3 coactivator peptide (aa 614–698) containing LXXLL (L, leucine; X, any amino acid) motifs 1 and 2 was cloned into the pBIND vector to generate the pBIND-SRC-3 construct expressing the SRC-3 protein fused to the GAL4-DNA binding domain. Full-length human ERα (hERαWT) was encoded on a pcDNA3.1 expression plasmid. Point mutations in the LBD were generated with the QuikChange mutagenesis kit (Stratagene, San Diego, CA, USA) using the hERαWT template. […]
MDA-MB-231 cells were seeded on 96-well plates (2 × 10^4 cells/well) in 150 µL of medium. […] After 24 h, the cells were lysed and luminescence was measured as for the luciferase transcriptional assay described above.

[1] = test system: ERα-dependent genes pS2, PR, Cyclin D1 and CDC2; test: qRT-PCR of ERα-dependent genes in TamR3 cells; type: cell-based, human; details: TamR3, 24 h, 1 nM E2
Procedure: mRNA levels were analyzed after treatment of MCF7 and TamR3 cells for 24 h with the test compounds as described previously. The fold change in expression of the genes was calculated using the 2^−ΔΔCt method with GAPDH as the internal control.

MCF7 cells = test: Presto Blue cell viability assay, MCF7; type: cell-based, human; details: MCF7, 96 h, two-fold dilution starting at 50 µM
Procedure: (§1) The Presto Blue cell viability assay was used to assess the growth inhibitory potential of VPC-16606 on ERα^+ T47D, MCF7, ZR75-1 and TamR3 cells. They were treated for 96 h with a two-fold dilution range of the compound starting at 50 µM.
(§2) Cell viability was determined using the Presto Blue cell viability assay (Thermo Fisher Scientific, Waltham, MA, USA). Cells were seeded in clear bottom black-walled 96-well plates at a density of 5 × 10^3 cells/well in 100 μL of their respective media. On the following day, the cells were treated with test compounds (0.001–22.5 μM) in the presence of 1 nM E2 and incubated at 37 °C. After 96 h, 30 μL of Presto Blue reagent was added and incubated for 10 min at 37 °C. The fluorescent signal from viable cells was measured at 590 nm.

ERβ LBD = ERβ LBD (Homo sapiens, UniProt Q92731); test: TR-FRET coactivator peptide displacement assay with ERβ-LBD; type: biochemical; details: purified ERβ LBD
Sequence of ERβ LBD (Q92731 264-498 limits assumed, species assumed): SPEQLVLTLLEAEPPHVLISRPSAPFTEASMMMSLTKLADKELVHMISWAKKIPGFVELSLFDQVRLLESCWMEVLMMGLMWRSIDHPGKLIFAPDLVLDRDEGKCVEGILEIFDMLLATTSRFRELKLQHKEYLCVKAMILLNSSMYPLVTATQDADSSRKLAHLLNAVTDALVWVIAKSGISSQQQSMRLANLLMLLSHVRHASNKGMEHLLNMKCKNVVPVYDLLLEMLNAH
Description: Given that tamoxifen acts as a pure antagonist of ERβ [34], the effect of VPC-16606 on ERβ and its corresponding implications in breast cancer will also need to be evaluated. Moreover, the role of ERβ in breast cancer biology is not yet clear, with some evidence pointing towards ERβ exerting proliferating effects in the absence of ERα [36].
Supplementary Materials: Benzothiophenone Derivatives Targeting Mutant Forms of Estrogen Receptor-α in Hormone-Resistant Breast Cancers
Figure S1. Effect of VPC-16606 on viability of PC3 cells as measured in the Presto Blue assay. […]
Figure S2. TR-FRET Assay showing displacement of Fluorescein labelled PGC1 α peptide by VPC-16606 upon incubation with ER β-LBD. OHT was used at 1µM. Error bars represent standard deviation for two independent experiments performed in triplicates. […]

[2] = test system: pS2, PR, Cyclin D1 and CDC2 proteins; test: Western blotting in TamR3 cells; type: cell-based, human; details: TamR3, 24 h, effect at higher doses
Procedure: (§3) Serum-starved MCF7 and TamR3 cells were seeded onto a six-well plate at a density of 6 × 10^5 cells/well and treated the following day with VPC-16606 in the presence of 1 nM E2. One micromolar OHT was used as the positive control. After 24 h, cells were lysed in 1× radioimmunoprecipitation assay (RIPA) buffer. Twenty five micrograms of protein were loaded into SDS-PAGE gels and transferred to PVDF membranes. Membranes were incubated with pS2, PR Cyclin D1 and CDC2 antibodies or control α-actin antibody. Bound antibodies were detected using HRP-conjugated secondary antibodies. Chemiluminescence was detected with an Amersham ECL detection kit (GE Healthcare Life Sciences, Chicago, IL, USA), and bands were visualised using the G:BOX imager (Syngene, Cambridge, UK).

T47D cells = test: Presto Blue cell viability assay, T47D; type: cell-based, human; details: 96 h, two-fold dilution starting at 50 µM
Procedure: as §1, §2

[3] = test system: pS2, PR, Cyclin D1 and CDC2 proteins; test: Western blotting in MCF7 cells; type: cell-based, human; details: MCF7, 24 h, effect at higher doses
Procedure: as §3

CC(=O)N(/N=C1\Sc2c(C)cccc2C1=O)c1ccccc1Cl [VPC-16606]
IC50 (ERα-LBD and SRC-3): 800 nM
mRNA levels of ERα-dependent genes pS2, PR, Cyclin D1 and CDC2 [1]: significantly downregulates
Cell growth (Presto Blue viability) (MCF7 cells): significantly reduce the growth
Displacement of fluorescein labelled PGC1α peptide from ERβ LBD (TR-FRET) (ERβ LBD): resulted in peptide displacement
Expression of pS2, PR, Cyclin D1 and CDC2 proteins (Western blot) [2]: decreased expression
Cell growth (Presto Blue viability) (T47D cells): significantly reduce the growth
Expression of pS2, PR, Cyclin D1 and CDC2 proteins (Western blot) [3]: decreased expression
